Marks after values point to notes of the source that are not given here.
Key:
wheat (Nourin 61) = assay: Yield-increasing effect in wheat (Example 6); type: in vivo, wheat (genus Triticum); settings: 6 pots
Protocol: In 1/2000-a pots having crushed gravel in the bottom, 6 kg of a paddy-rice nursery soil was placed and, as a base fertilizer, 5-7-6 (N—P—K) was added in an amount of 4 g. The soil was sufficiently watered and 3 days later, 10 grains of wheat (Nourin 61) were sown in each pot. The wheat was cultured providing 300 ml of water once a week, and the seedlings were thinned 2 weeks after germination to leave 5 seedlings showing good growth. In the subsequent two weeks, a total of 6 pots were each treated once a week with AHX (5 μM), AHX (50 μM), AHX (1 mM), ICA (2 μM) or water only (control). Then, after culturing for 9 weeks providing 300 ml of just water once a week, the culture was continued for another 12 weeks by changing the amount of water to 500 ml once a week. It is noted here that, 2 weeks after the change was made in the amount of water, 0.75 g of ammonium sulfate was added to each pot as a panicle fertilizer. Further, the AHX (1 mM) treatment pots were subjected to an additional treatment with AHX (1 mM) for 2 weeks after the addition of the panicle fertilizer. The culture was carried out from Oct. 26, 2009 to May 12, 2010. After the completion of the culture, drying was performed for two weeks and the total wheat yield (g/5 plants) was measured.

rice (Nipponbare) [1] = assay: Yield-increasing effect in soil culture of rice 2 (Example 3); type: in vivo, rice (genus Oryza); settings: for Brown rice weight (g/plant): soil culture Jun. 10 to Sep. 29, n=6; for Brown rice weight (g/100 brown rice grains) / Culm length (cm) / Mass of the above-ground part (g/plant) / Number of panicles (/plant) / Panicle length (cm): n=6; for Brown rice size: mass per grain
Protocol: Soil culture was carried out from Jun. 10, 2009 to Sep. 29, 2009 in the same manner as in Example 1, except that seedlings of rice (Nipponbare) obtained by a 30-day cultivation were transplanted one by one to a soil (in 1/5000-a pot) which contains a fertilizer containing N (1,440 mg), P2O5 (12 mg), K2O (760 mg) and CaO (806 mg).
Water and nutrients were supplied once a day. As the medium used for the addition, the culture medium for the AHX (5 μM)-treated section, the culture medium for the ICA (2 μM)-treated section and the culture medium the control section were respectively used in the AHX (5 μM)-treated section, the ICA (2 μM)-treated section and the control section. It is noted here that, unlike the case of hydroponic culture, the culture medium was not replaced.
(§1) The cereal crops obtained by the soil culture were dried for 2 weeks and the following items were measured: brown rice mass; water content of brown rice; size and number of brown rice (per plant); panicle length; culm length; number of panicles; and mass of the above-ground part (n=6).

[2] = test system: Rice (cultivar: "Nipponbare"); assay: Yield-increasing effect in hydroponic culture of rice (Example 1); type: in vivo, rice (genus Oryza)
Protocol: Rice (cultivar: “Nipponbare”) was used in the test. Seeds thereof were sown in a nursery box, and after 20 days of cultivation, the resulting rice seedlings were transplanted one by one to a pot (1/5000-a) and cultivated for 1 week with tap water.
After the cultivation with tap water, the thus obtained rice plants were cultured in a culture medium added with the AHX (50 μM), which was synthesized in the above, in an outdoor environment over a period of 97 days starting in July.
During the periods from the 8th day to the 32nd day and the period from the 73rd day to the 97th day after the transplantation, the culture was carried out in a medium having a half concentration of the undiluted culture medium, and during the period from the 33rd day to the 72nd day, the undiluted culture medium was used.
Water and nutrients were supplied once every 3 days. As the medium used for the addition, the culture medium for the AHX-treated section and the culture medium for the control section were respectively used in the AHX-treated section and the control section. It is noted here, however, that the culture medium was replaced once a week in the case of hydroponic culture.
The cereal crops obtained by the culture were dried for 2 weeks and the following items were measured: brown rice mass; water content, carbon content and nitrogen content of brown rice; size and number of brown rice (per plant); leaf length; culm length; panicle length; number of panicles; tiller number; and mass of the above-ground and underground parts. Here, the size of brown rice means the mass per grain determined from the brown rice mass (g/100 brown rice grains) and the number of brown rice refers to a value obtained by dividing the brown rice weight (g/plant) by the brown rice weight (g/100 brown rice grains) (number of plants n=6).

rice (Nipponbare) [3] = assay: Yield-increasing effect in soil culture of rice 1 (Example 2); type: in vivo, rice (genus Oryza); settings: AHX 50 μM
Protocol: Soil culture was carried out for 97 days starting in July in the same manner as in Example 1, except that seedlings of rice (Nipponbare) were transplanted one by one to a soil (in 1/5000-a pot) which contains a fertilizer containing N (1,440 mg), P2O5 (12 mg), K2O (760 mg) and CaO (806 mg).
Water and nutrients were supplied once a day. As the medium used for the addition, the culture medium for the AHX (50 μM)-treated section and the culture medium for the control section were respectively used in the AHX (50 μM)-treated section and the control section. It is noted here that, unlike the case of hydroponic culture, the culture medium was not replaced.
The cereal crops obtained by the soil culture were dried for 2 weeks and the following items were measured in the same manner as in Example 1: brown rice mass; water content, carbon content and nitrogen content of brown rice; size and number of brown rice (per plant); leaf length; culm length; panicle length; number of panicles; tiller number; and mass of the above-ground part (n=7).

[4] = test system: seed potato (cultivar: "Danshaku"); assay: Yield-increasing effect in potato (Example 5); type: in vivo, potato (genus Solanum)
Protocol: A seed potato (cultivar: “Danshaku”) was cut into pieces of 30 g to 35 g in weight and they were each allowed to take roots in soil (in 1/2000-a pot) which contains a fertilizer containing N (960 mg), P2O5 (480 mg), K2O (640 mg) and MgO (320 mg). After 2-weeks of cultivation with tap water (after an above-ground part appeared), 2.74 mg (20 μmol) of AHX was dissolved in tap water and added to the pot every week. The Danshaku potato was cultured in an outdoor environment over a period of 12 weeks starting in January. The control section was treated with tap water only.
After 12 weeks, the Danshaku potato was harvested to measure the tuber mass (for the whole potato and a group consisting of potatoes having a weight of not less than 20 g that were extracted), the length and mass of the above-ground part and the leaf length (n=5).

[5] = test system: Rice (cultivar: "Nipponbare"); assay: Yield-increasing effect in soil culture of rice 3, treatment before planting (Example 4); type: in vivo, rice (genus Oryza)
Protocol: Rice (cultivar: “Nipponbare”) was used in the test. Seeds thereof were sown in a nursery box, and after 16 days of cultivation, the resulting rice seedlings were transplanted to a pot (1/5000-a) and hydroponically cultured in a culture medium added with the AHX (1 mM) synthesized in the above for 2 weeks before settled-planting.
After the above-described hydroponic culture, the resulting seedlings were settled-planted in soil (in 1/5000-a pot) which contains a fertilizer containing N (1,440 mg), P2O5 (12 mg), K2O (760 mg) and CaO (806 mg). and soil-cultured from Jun. 10, 2009 to Sep. 29, 2009 in the same manner as in Example 1. During the soil culture period, no treatment with AHX was performed, and water and nutrients were supplied once per day. It is noted here that the culture medium was not replaced.
as §1

[6] = AHX 50 μM, hydroponic culture 97 days, n=6
[7] = 20 μmol AHX per pot every week, 12 weeks, n=5
[8] = 1 mM-treatment before planting, soil culture, n=6

Structure (SMILES): NC(=O)c1c[nH]cn1 [ICA, imidazole-4-carboxamide]
- Seed Yield (g/5 plants) (wheat (Nourin 61); 2 μM, once a week for two weeks, soil pots): 47.99 g/5 plants
- Number of brown rice (/plant) (rice (Nipponbare) [1]; 2 μM, soil culture): 2104 /plant
- Brown rice weight (g/plant) (rice (Nipponbare) [1]; 2 μM): 46.5 * g/plant
- Brown rice weight (g/100 brown rice grains) (rice (Nipponbare) [1]; 2 μM, soil culture): 2.21 g/100 brown rice grains
- Culm length (cm) (rice (Nipponbare) [1]; 2 μM, soil culture): 87.2 cm
- Mass of the above-ground part (g/plant) (rice (Nipponbare) [1]; 2 μM, soil culture): 152 g/plant
- Number of panicles (/plant) (rice (Nipponbare) [1]; 2 μM, soil culture): 30.5 /plant
- Panicle length (cm) (rice (Nipponbare) [1]; 2 μM, soil culture): 22.1 cm
- Increase of grain weight per plant (rice (Nipponbare) [1]; 2 μM, soil culture, vs control): about 26%
- Brown rice size (rice (Nipponbare) [1]; 2 μM, soil culture): 22.1 mg

Structure (SMILES): O=c1[nH]nnc2nc[nH]c12 [AHX, 2-azahypoxanthine]
- Brown rice weight (g/plant) ([2]; AHX 50 μM in culture medium, hydroponic culture 97 days, n=6): 34.6 * g/plant
- Number of brown rice (/plant) ([2]; AHX 50 μM, hydroponic culture 97 days): 1544 /plant
- Brown rice weight (g/100 brown rice grains) [2, 6]: 2.24 * g/100 brown rice grains
- Culm length (cm) [2, 6]: 60.7 cm
- Leaf length (cm) [2, 6]: 72.2 * cm
- Mass of the above-ground part (g/plant) [2, 6]: 103 *^ g/plant
- Mass of underground part (g/plant) [2, 6]: 8.56 g/plant
- Number of panicles (/plant) [2, 6]: 30.8 * /plant
- Panicle length (cm) [2, 6]: 21.4 * cm
- Tiller number (/plant) [2, 6]: 25.1 /plant
- Brown rice size ([2]; AHX 50 μM, hydroponic culture 97 days, mass per grain): 22.4 mg
- Increase of brown rice weight per plant ([2]; AHX 50 μM, hydroponic culture, vs control): about 6%
- Seed Yield (g/5 plants) (wheat (Nourin 61); 5 μM, once a week for two weeks, soil pots): 44.66 g/5 plants
- Seed Yield (g/5 plants) (wheat (Nourin 61); 50 μM, once a week for two weeks, soil pots): 45.68 g/5 plants
- Seed Yield (g/5 plants) (wheat (Nourin 61); 1 mM, once a week for two weeks plus additional 2 weeks after panicle fertilizer): 46.79 g/5 plants
- Number of brown rice (/plant) (rice (Nipponbare) [3]; soil culture 97 days): 1864 /plant
- Brown rice weight (g/100 brown rice grains) (rice (Nipponbare) [3]; soil culture 97 days, n=7): 2.28 g/100 brown rice grains
- Brown rice weight (g/plant) (rice (Nipponbare) [3]; soil culture 97 days, n=7): 42.5 * g/plant
- Culm length (cm) (rice (Nipponbare) [3]; soil culture 97 days, n=7): 70.0 cm
- Leaf length (cm) (rice (Nipponbare) [3]; soil culture 97 days, n=7): 76.5 cm
- Mass of the above-ground part (g/plant) (rice (Nipponbare) [3]; soil culture 97 days, n=7): 122 *^ g/plant
- Number of panicles (/plant) (rice (Nipponbare) [3]; soil culture 97 days, n=7): 24.5 /plant
- Panicle length (cm) (rice (Nipponbare) [3]; soil culture 97 days, n=7): 21.1 cm
- Tiller number (/plant) (rice (Nipponbare) [3]; soil culture 97 days, n=7): 26.2 /plant
- Brown rice size (rice (Nipponbare) [3]; soil culture 97 days, mass per grain): 22.8 mg
- Increase of brown rice weight per plant (rice (Nipponbare) [3]; soil culture, vs control): about 10%
- Leaf length (cm) [4, 7]: 7 cm
- Length of the above-ground part (cm) [4, 7]: 24 cm
- Mass of the above-ground part (g/plant) [4, 7]: 30 g/plant
- Total mass (g · potatoes of not less than 20 g/plant) [4, 7]: 85 * g · potatoes of not less than 20 g/plant
- Total mass (g/plant) of tubers ([4]; 2.74 mg (20 μmol) AHX per pot every week, 12 weeks, soil, n=5): 95 * g/plant
- Increase of total mass of potatoes ([4]; treated with AHX for 12 weeks, vs control): about 19%
- Increase of mass, only potatoes of not less than 20 g ([4]; treated with AHX for 12 weeks, vs control section): about 40%
- Number of brown rice (/plant) ([5]; 1 mM-treatment before planting, soil culture): 2027 /plant
- Brown rice weight (g/100 brown rice grains) [5, 8]: 2.15 g/100 brown rice grains
- Culm length (cm) [5, 8]: 86 cm
- Mass of the above-ground part (g/plant) [5, 8]: 154 *^ g/plant
- Number of panicles (/plant) [5, 8]: 33 /plant
- Panicle length (cm) [5, 8]: 21.1 cm
- Brown rice size ([5]; 1 mM-treatment before planting, soil culture, mass per grain): 21.5 mg
- Increase of brown rice weight per plant ([5]; 1 mM-treatment before planting, vs control): about 18%
- Brown rice weight (g/plant) ([5]; 1 mM-treatment for 2 weeks before planting, then soil culture without AHX, n=6): 43.6 * g/plant
- Number of brown rice (/plant) (rice (Nipponbare) [1]; 5 μM, soil culture): 2086 /plant
- Brown rice weight (g/plant) (rice (Nipponbare) [1]; 5 μM): 46.3 * g/plant
- Brown rice weight (g/100 brown rice grains) (rice (Nipponbare) [1]; 5 μM, soil culture): 2.22 g/100 brown rice grains
- Culm length (cm) (rice (Nipponbare) [1]; 5 μM, soil culture): 89.8 cm
- Mass of the above-ground part (g/plant) (rice (Nipponbare) [1]; 5 μM, soil culture): 150 g/plant
- Number of panicles (/plant) (rice (Nipponbare) [1]; 5 μM, soil culture): 30.8 /plant
- Panicle length (cm) (rice (Nipponbare) [1]; 5 μM, soil culture): 20.8 cm
- Increase of brown rice weight per plant (rice (Nipponbare) [1]; 5 μM, soil culture, vs control): about 25%
- Brown rice size (rice (Nipponbare) [1]; 5 μM, soil culture): 22.2 mg

Reference: patent US8518859B2, “Method for increasing yield of staple food crop” (National University Corporation Shizuoka University, priority 2009, dated 2013)
